Experimental data reported in patent US20230233606A1, “Cell” (AUTOLUS LIMITED, priority 2019, published 2023).

What was measured:
Type in all cases: cell-based
SupT1 CD22 High [1] = assay: FBK assay with or without 3-IB-PP1, Example 4, SupT1 CD22 High; details: 3-IB-PP1 10 uM; T cells expressing CSK^AS; CD22 High (20,262 molecules per cell); E:T 1:4; 72 h
Description: (§1) Analysis by flow cytometry was carried out at 72 h post co-culture set up. Each condition was tested with a minimum of 6 donors (n=6), with median indicated. All data was normalised to NT T cells. T cells were co-cultured with SupT1 NT (left), SupT1 CD22 High (middle) or SupT1 CD22 Low (right) target cells at an E:T ratio of 1:4. Statistics were run using a paired t-test. *P<0.05, **P<0.01, ***P<0.001, ****P<0.0001.
(§2) PBMCs were either left untransduced or transduced with one of the constructs. The capacity of the CAR-T cells to kill target cells expressing CD22 was investigated using a FACS-based killing (FBK) assay. […] Two different types of CD22-expressing SupT1 target cells were generated, one expressing CD22 at a low density (average number of CD22 molecules per cell: 3,309) and one expressing CD22 at a high density (average number of CD22 molecules per cell: 20,262).

SupT1 CD22 Low [2] = assay: FBK assay with or without 3-IB-PP1, Example 4, SupT1 CD22 Low; details: 3-IB-PP1 10 uM; T cells expressing CSK^AS; CD22 Low (3,309 molecules per cell); E:T 1:4; 72 h
Description: as §1, §2

SupT1 CD22 High [3] = assay: IL-2 release ELISA, Example 4, SupT1 CD22 High; details: 3-IB-PP1 10 uM, CSK^AS expressing T cells, E:T 1:4, 72 h
Description: (§3) Supernatant taken at 72 h post co-culture set up was analysed by ELISA for the presence of IL-2. Each condition was tested with a minimum of 6 donors (n=6), with median indicated. T cells were co-cultured with SupT1 NT (left), SupT1 CD22 High (middle) or SupT1 CD22 Low (right) target cells at an E:T ratio of 1:4.
(§4) In order to investigate cytokine release, supernatant was taken at 72 h post co-culture set up and analysed by ELISA for the presence of IL-2 and IFN-γ.

SupT1 CD22 Low [4] = assay: IL-2 release ELISA, Example 4, SupT1 CD22 Low; details: 3-IB-PP1 10 uM, CSK^AS expressing T cells, E:T 1:4, 72 h
Description: as §3, §4

SupT1 CD22 High [5] = assay: IFN-γ release ELISA, Example 4, SupT1 CD22 High; details: 3-IB-PP1 10 uM, T cells expressing CSK^AS, E:T 1:4, 72 h
Description: as §3, with “IFN-γ.” for “IL-2.”
as §4

SupT1 CD22 Low [6] = assay: IFN-γ release ELISA, Example 4, SupT1 CD22 Low; details: 3-IB-PP1 10 uM, T cells expressing CSK^AS, E:T 1:4, 72 h
Description: as §3, with “IFN-γ.” for “IL-2.”
as §4

SupT1 CD22 High [7] = assay: FBK assay with increasing concentrations of 3-IB-PP1, Example 5; details: 3-IB-PP1 0.156 uM-10 uM; T cells expressing CSK^AS; CD22 High (6,309 molecules per cell); E:T 1:4; 72 h
Description: (§5) Analysis by flow cytometry was carried out at 72 h post co-culture set up. Each condition was tested with a minimum of 3 donors (n=3), with median indicated. All data was normalised to NT T cells. T cells were co-cultured with SupT1 NT (left) or SupT1 CD22 High (right) target cells at an E:T ratio of 1:4.
(§6) The co-culture described in Example 4 was repeated, but this time with increasing concentrations of 3-IB-PP1 (0.156 uM-10 uM).

SupT1 CD22 High [8] = assay: IFN-γ release with increasing concentrations of 3-IB-PP1, Example 5; details: 3-IB-PP1 0.156 uM-10 uM, T cells expressing CSK^AS, E:T 1:4, 72 h
Description: as §5, §6

CC(C)(C)n1nc(Cc2cccc(I)c2)c2c(N)ncnc21 [3-IB-PP1, 3-iodo-benzyl-PP1]
cytotoxicity (SupT1 CD22 High [1]): significantly increased compared to the media condition | cytotoxicity (SupT1 CD22 Low [2]): significantly increased compared to the media condition | IL-2 release (SupT1 CD22 High [3]): increased levels of IL-2 | IL-2 release (SupT1 CD22 Low [4]): increased levels of IL-2 | IFN-γ release (SupT1 CD22 High [5]): significantly higher IFN-γ concentrations compared to the media condition | IFN-γ release (SupT1 CD22 Low [6]): significantly higher IFN-γ concentrations compared to the media condition | cytotoxicity (SupT1 CD22 High [7]): increased in a dose-dependent manner | IFN-γ production (SupT1 CD22 High [8]): increased in a dose-dependent manner
